# Source: patent US12364733B1, “Method for treating septic shock” (Inotrem, priority 2018, dated 2025)
# Tested on: septic shock patients
# Assay: Phase IIa clinical trial with nangibotide: days alive and free from vasopressor, IMV or CRRT
# Type: in vivo, human
# Conditions: for difference in the number of CRRT (continuous renal replacement therapy) free days alive vs. placebo / difference in the number of IMV (invasive mechanical ventilation) free days alive vs. placebo / difference in the number of vasopressor free days alive vs. placebo: day 0 to day 28
# Experimental: This was a randomized, double-blind, two-stage, placebo-controlled study. As described in FIG. 7, the study was composed of 2 stages with a similar treatment regimen, in which 0.3, 1.0 or 3.0 mg/kg/h of nangibotide (corresponding to peptide LR12, having an amino acid sequence as set forth in SEQ ID NO: 9, also known as motrem) was tested versus placebo. All patients with a diagnosis of septic shock were considered for study participation. All potential study patients underwent standard care management procedures. Patients with evidence of septic shock according to the Sepsis-3 definition (Singer et al, JAMA 2016) were considered for inclusion (i.e., patients suffering from sepsis and having (i) persisting hypotension requiring vasopressors to maintain their mean arterial pressure ≥65 mm Hg and (ii) a serum lactate level >2 mmol/L (18 mg/dL) despite adequate volume resuscitation).
# After screening for eligibility, patients were randomized to one of the treatment arms. Then, they received either a 5 mg/kg loading dose of nangibotide over 15 minutes followed by a continuous intravenous (i.v.) infusion of nangibotide or a matching placebo on top of standard of care. Treatment with study drug was initiated as early as possible, but no later than 24 hours after the onset of septic shock, defined by the start of vasopressor therapy. Patients were treated until 12 (±2) hours after the resolution of their septic shock (defined as vasopressor withdrawal) with a maximum treatment duration of 5 days (120 hours).
# Adverse events (AEs) were coded using the MedDRA dictionary version 18.1. Treatment-emergent adverse events (TEAEs) were summarized and listed. Analysis was performed in 49 septic shock patients. The demographic and baseline characteristics were summarized in a descriptive fashion within each population: categorical variables were summarized by contingency tables (frequencies and percentages). sTREM-1 levels at day 1 were also described (mean, standard deviation, standard error, median, quartiles and range, minimum and maximum values). Mortality rates were reported by frequency and percentage. For continuous endpoints, i.e., the sequential organ failure assessment (SOFA), missing data were imputed using LOCF (Last Observation Carry-Forward). For time-to-event analyses, i.e., duration of invasive mechanical ventilation (IMV), duration of continuous renal replacement therapy (CRRT), survival, censored data techniques were utilized. In addition, a sensitivity analysis of time to event data (except survival) was performed using censoring at maximum limit for the corresponding observation period (i.e., either day 28 or day 90). […] The following comparisons were made: each nangibotide dose arm to placebo, all nangibotide doses combined versus placebo, and dose-response using an ordinal trend test. Exploratory composite endpoint: incidence (number and proportion) of patients alive at day 28 and free of vasopressor, free of IMV and free of CRRT were summarized by treatment and compared between treatments with a Fisher's exact test. For pharmacodynamic markers, log transformed data were represented as percentage change from baseline at day 5 or End of Infusion (EOI) if end of infusion was stopped before day 5. […] “All nangibotide” refers to analyses obtained by pooling data from 0.3, 1 and 3 mg/kg/h nangibotide-treated groups.
# [1] = baseline high sTREM-1 subgroup, 0.3 mg/kg/h
# [2] = baseline high sTREM-1 subgroup, 3 mg/kg/h
# [3] = baseline high sTREM-1 subgroup, all nangibotide
# [4] = baseline low sTREM-1 subgroup, 0.3 mg/kg/h
# [5] = baseline low sTREM-1 subgroup, 3 mg/kg/h
# [6] = baseline low sTREM-1 subgroup, all nangibotide
# [7] = whole population, all nangibotide
substance,measurement,setting,value
nangibotide (LQEEDAGEYGCM; TLT-1 peptide),proportion of patients alive and free of any medical support at day 28,"all nangibotide group, patients with high circulating sTREM-1 at baseline (above 433 pg/mL), placebo 40%",70%
same,difference in the number of CRRT (continuous renal replacement therapy) free days alive vs. placebo,[1],8.67 days
same,difference in the number of IMV (invasive mechanical ventilation) free days alive vs. placebo,[1],2.63 days
same,difference in the number of vasopressor free days alive vs. placebo,[1],4.07 days
same,difference in the number of CRRT (continuous renal replacement therapy) free days alive vs. placebo,[2],7.37 days
same,difference in the number of IMV (invasive mechanical ventilation) free days alive vs. placebo,[2],4.30 days
same,difference in the number of vasopressor free days alive vs. placebo,[2],-0.48 days
same,difference in the number of CRRT (continuous renal replacement therapy) free days alive vs. placebo,[3],7.85 days
same,difference in the number of IMV (invasive mechanical ventilation) free days alive vs. placebo,[3],5.63 days
same,difference in the number of vasopressor free days alive vs. placebo,[3],2.94 days
same,difference in the number of CRRT (continuous renal replacement therapy) free days alive vs. placebo,[4],1.43 days
same,difference in the number of IMV (invasive mechanical ventilation) free days alive vs. placebo,[4],3 days
same,difference in the number of vasopressor free days alive vs. placebo,[4],2.29 days
same,difference in the number of CRRT (continuous renal replacement therapy) free days alive vs. placebo,[5],0.89 days
same,difference in the number of IMV (invasive mechanical ventilation) free days alive vs. placebo,[5],-6.32 days
same,difference in the number of vasopressor free days alive vs. placebo,[5],0.07 days
same,difference in the number of CRRT (continuous renal replacement therapy) free days alive vs. placebo,[6],0.77 days
same,difference in the number of IMV (invasive mechanical ventilation) free days alive vs. placebo,[6],-1.30 days
same,difference in the number of vasopressor free days alive vs. placebo,[6],0.64 days
same,"vasopressor use, invasive mechanical ventilation (IMV) use and renal replacement therapy (RRT) use vs. placebo",no statistically significant differences,consistent numerical trend in favor of nangibotide
same,difference in the number of CRRT (continuous renal replacement therapy) free days alive vs. placebo,"whole population, 0.3 mg/kg/h",4.10 days
same,difference in the number of IMV (invasive mechanical ventilation) free days alive vs. placebo,"whole population, 0.3 mg/kg/h",2.32 days
same,difference in the number of CRRT (continuous renal replacement therapy) free days alive vs. placebo,"whole population, 3 mg/kg/h",1.50 days
same,difference in the number of IMV (invasive mechanical ventilation) free days alive vs. placebo,"whole population, 3 mg/kg/h",-2.08 days
same,difference in the number of CRRT (continuous renal replacement therapy) free days alive vs. placebo,[7],2.70 days
same,difference in the number of IMV (invasive mechanical ventilation) free days alive vs. placebo,[7],1.33 days
